For the experiment, the target named is T1, Neutrophil elastase (Homo sapiens, UniProt P08246).
T1 sequence (P08246 whole entry): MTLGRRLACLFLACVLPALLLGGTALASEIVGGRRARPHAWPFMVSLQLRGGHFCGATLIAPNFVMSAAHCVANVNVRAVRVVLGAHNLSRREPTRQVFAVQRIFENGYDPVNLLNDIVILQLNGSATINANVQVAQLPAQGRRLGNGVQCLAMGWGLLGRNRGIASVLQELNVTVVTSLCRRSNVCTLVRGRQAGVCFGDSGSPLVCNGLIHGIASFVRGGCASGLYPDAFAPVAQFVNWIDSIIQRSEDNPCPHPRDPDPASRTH
The experiment can be described thus: Tested for the rate constant against Human Leukocyte Elastase (HLE) inactivation. The note with it: read-out: kon (M-1-s-1).

The structures appear in SMILES notation.

On to `CO[C@H]1C(=O)N2C(C(=O)N3CCCC3C(=O)O)=C(COC(C)=O)CS(=O)(=O)[C@H]12` (stereo partly drawn) [1-(3-Acetoxymethyl-7-methoxy-5,5,8-trioxo-5lambda*6*-thia-1-aza-bicyclo[4.2.0]oct-2-ene-2-carbonyl)-pyrrolidine-2-carboxylic acid(L-658,758)], for which the kon was 1800 M⁻¹ s⁻¹.

One may read the kon as a measure of how fast the partners come together.

(Values after BindingDB's records for doi:10.1021/jm00049a020 (Pharmacia-Farmitalia Carlo Erba, 1994).)
